Oligonucleotides are given in HELM: sugar(base)linkage, 5' to 3'; d 2'-deoxyribose, r ribose, m 2'-O-methylribose, p phosphate. ss, as = sense and antisense strand
Target: SOST
Test: reporter assay of Huesken 2005
Settings: siRNA
Also: test concentration or dose not given here.

Question: For “RNA1{r(A)p.r(C)p.r(G)p.r(U)p.r(G)p.r(U)p.r(C)p.r(C)p.r(G)p.r(A)p.r(G)p.r(U)p.r(A)p.r(C)p.r(A)p.r(G)p.r(C)p.r(U)p.r(G)p.d(T)p.d(T)}|RNA2{r(C)p.r(A)p.r(G)p.r(C)p.r(U)p.r(G)p.r(U)p.r(A)p.r(C)p.r(U)p.r(C)p.r(G)p.r(G)p.r(A)p.r(C)p.r(A)p.r(C)p.r(G)p.r(U)p.d(C)p.d(T)}$$$RNA1{StrandType:ss}|RNA2{StrandType:as}$”, which normalised inhibition (eCFP-eYFP dual reporter) is on record?
Answer: Its normalised inhibition (eCFP-eYFP dual reporter) is 74.9%.

Question: Which normalised inhibition (eCFP-eYFP dual reporter) does the source give for “RNA1{r(A)p.r(G)p.r(A)p.r(C)p.r(C)p.r(A)p.r(U)p.r(G)p.r(A)p.r(A)p.r(C)p.r(C)p.r(G)p.r(G)p.r(G)p.r(C)p.r(G)p.r(G)p.r(A)p.d(T)p.d(T)}|RNA2{r(U)p.r(C)p.r(C)p.r(G)p.r(C)p.r(C)p.r(C)p.r(G)p.r(G)p.r(U)p.r(U)p.r(C)p.r(A)p.r(U)p.r(G)p.r(G)p.r(U)p.r(C)p.r(U)p.d(T)p.d(G)}$$$RNA1{StrandType:ss}|RNA2{StrandType:as}$” here?
Answer: The normalised inhibition (eCFP-eYFP dual reporter) was 78.8%.

Question: Which normalised inhibition (eCFP-eYFP dual reporter) does the source give for “RNA1{r(A)p.r(G)p.r(C)p.r(U)p.r(C)p.r(A)p.r(A)p.r(G)p.r(G)p.r(A)p.r(C)p.r(U)p.r(U)p.r(C)p.r(G)p.r(G)p.r(G)p.r(A)p.r(C)p.d(T)p.d(T)}|RNA2{r(G)p.r(U)p.r(C)p.r(C)p.r(C)p.r(G)p.r(A)p.r(A)p.r(G)p.r(U)p.r(C)p.r(C)p.r(U)p.r(U)p.r(G)p.r(A)p.r(G)p.r(C)p.r(U)p.d(C)p.d(C)}$$$RNA1{StrandType:ss}|RNA2{StrandType:as}$” here?
Answer: Its normalised inhibition (eCFP-eYFP dual reporter) is 64.7%.

Question: With “RNA1{r(A)p.r(G)p.r(C)p.r(U)p.r(G)p.r(C)p.r(U)p.r(G)p.r(U)p.r(G)p.r(U)p.r(C)p.r(C)p.r(C)p.r(G)p.r(G)p.r(U)p.r(G)p.r(G)p.d(T)p.d(T)}|RNA2{r(C)p.r(C)p.r(A)p.r(C)p.r(C)p.r(G)p.r(G)p.r(G)p.r(A)p.r(C)p.r(A)p.r(C)p.r(A)p.r(G)p.r(C)p.r(A)p.r(G)p.r(C)p.r(U)p.d(G)p.d(C)}$$$RNA1{StrandType:ss}|RNA2{StrandType:as}$” as the substance, how does the normalised inhibition (eCFP-eYFP dual reporter) read?
Answer: Its normalised inhibition (eCFP-eYFP dual reporter) is 66%.

Question: Which normalised inhibition (eCFP-eYFP dual reporter) does the source give for “RNA1{r(A)p.r(G)p.r(G)p.r(U)p.r(G)p.r(C)p.r(G)p.r(C)p.r(C)p.r(U)p.r(G)p.r(G)p.r(U)p.r(G)p.r(G)p.r(C)p.r(C)p.r(U)p.r(C)p.d(T)p.d(T)}|RNA2{r(G)p.r(A)p.r(G)p.r(G)p.r(C)p.r(C)p.r(A)p.r(C)p.r(C)p.r(A)p.r(G)p.r(G)p.r(C)p.r(G)p.r(C)p.r(A)p.r(C)p.r(C)p.r(U)p.d(T)p.d(G)}$$$RNA1{StrandType:ss}|RNA2{StrandType:as}$” here?
Answer: The normalised inhibition (eCFP-eYFP dual reporter) was 71.2%.

Question: For “RNA1{r(A)p.r(G)p.r(U)p.r(G)p.r(G)p.r(U)p.r(G)p.r(G)p.r(C)p.r(G)p.r(A)p.r(C)p.r(C)p.r(U)p.r(A)p.r(G)p.r(U)p.r(G)p.r(G)p.d(T)p.d(T)}|RNA2{r(C)p.r(C)p.r(A)p.r(C)p.r(U)p.r(A)p.r(G)p.r(G)p.r(U)p.r(C)p.r(G)p.r(C)p.r(C)p.r(A)p.r(C)p.r(C)p.r(A)p.r(C)p.r(U)p.d(T)p.d(G)}$$$RNA1{StrandType:ss}|RNA2{StrandType:as}$”, which normalised inhibition (eCFP-eYFP dual reporter) is on record?
Answer: The normalised inhibition (eCFP-eYFP dual reporter) was 78.9%.

Question: Which normalised inhibition (eCFP-eYFP dual reporter) does the source give for “RNA1{r(C)p.r(A)p.r(A)p.r(G)p.r(U)p.r(G)p.r(C)p.r(A)p.r(A)p.r(G)p.r(C)p.r(G)p.r(C)p.r(C)p.r(U)p.r(C)p.r(A)p.r(C)p.r(C)p.d(T)p.d(T)}|RNA2{r(G)p.r(G)p.r(U)p.r(G)p.r(A)p.r(G)p.r(G)p.r(C)p.r(G)p.r(C)p.r(U)p.r(U)p.r(G)p.r(C)p.r(A)p.r(C)p.r(U)p.r(U)p.r(G)p.d(C)p.d(A)}$$$RNA1{StrandType:ss}|RNA2{StrandType:as}$” here?
Answer: The normalised inhibition (eCFP-eYFP dual reporter) was 68.8%.

Question: How did the normalised inhibition (eCFP-eYFP dual reporter) turn out when “RNA1{r(C)p.r(A)p.r(A)p.r(G)p.r(U)p.r(G)p.r(G)p.r(U)p.r(G)p.r(G)p.r(C)p.r(G)p.r(A)p.r(C)p.r(C)p.r(U)p.r(A)p.r(G)p.r(U)p.d(T)p.d(T)}|RNA2{r(A)p.r(C)p.r(U)p.r(A)p.r(G)p.r(G)p.r(U)p.r(C)p.r(G)p.r(C)p.r(C)p.r(A)p.r(C)p.r(C)p.r(A)p.r(C)p.r(U)p.r(U)p.r(G)p.d(C)p.d(C)}$$$RNA1{StrandType:ss}|RNA2{StrandType:as}$” was run?
Answer: The normalised inhibition (eCFP-eYFP dual reporter) was 64.5%.

Question: Which normalised inhibition (eCFP-eYFP dual reporter) does the source give for “RNA1{r(C)p.r(A)p.r(C)p.r(C)p.r(C)p.r(C)p.r(U)p.r(U)p.r(U)p.r(G)p.r(A)p.r(G)p.r(A)p.r(C)p.r(C)p.r(A)p.r(A)p.r(A)p.r(G)p.d(T)p.d(T)}|RNA2{r(C)p.r(U)p.r(U)p.r(U)p.r(G)p.r(G)p.r(U)p.r(C)p.r(U)p.r(C)p.r(A)p.r(A)p.r(A)p.r(G)p.r(G)p.r(G)p.r(G)p.r(U)p.r(G)p.d(G)p.d(T)}$$$RNA1{StrandType:ss}|RNA2{StrandType:as}$” here?
Answer: The normalised inhibition (eCFP-eYFP dual reporter) was 72.2%.

Question: Which normalised inhibition (eCFP-eYFP dual reporter) does the source give for “RNA1{r(C)p.r(A)p.r(G)p.r(C)p.r(G)p.r(C)p.r(C)p.r(A)p.r(A)p.r(G)p.r(C)p.r(C)p.r(G)p.r(G)p.r(U)p.r(C)p.r(A)p.r(C)p.r(C)p.d(T)p.d(T)}|RNA2{r(G)p.r(G)p.r(U)p.r(G)p.r(A)p.r(C)p.r(C)p.r(G)p.r(G)p.r(C)p.r(U)p.r(U)p.r(G)p.r(G)p.r(C)p.r(G)p.r(C)p.r(U)p.r(G)p.d(C)p.d(G)}$$$RNA1{StrandType:ss}|RNA2{StrandType:as}$” here?
Answer: Its normalised inhibition (eCFP-eYFP dual reporter) is 50.5%.

Question: How did the normalised inhibition (eCFP-eYFP dual reporter) turn out when “RNA1{r(C)p.r(A)p.r(G)p.r(G)p.r(C)p.r(G)p.r(U)p.r(U)p.r(C)p.r(A)p.r(A)p.r(G)p.r(A)p.r(A)p.r(U)p.r(G)p.r(A)p.r(U)p.r(G)p.d(T)p.d(T)}|RNA2{r(C)p.r(A)p.r(U)p.r(C)p.r(A)p.r(U)p.r(U)p.r(C)p.r(U)p.r(U)p.r(G)p.r(A)p.r(A)p.r(C)p.r(G)p.r(C)p.r(C)p.r(U)p.r(G)p.d(C)p.d(C)}$$$RNA1{StrandType:ss}|RNA2{StrandType:as}$” was run?
Answer: The normalised inhibition (eCFP-eYFP dual reporter) was 82.4%.

Question: How did the normalised inhibition (eCFP-eYFP dual reporter) turn out when “RNA1{r(C)p.r(A)p.r(U)p.r(C)p.r(C)p.r(C)p.r(C)p.r(G)p.r(A)p.r(G)p.r(C)p.r(U)p.r(C)p.r(G)p.r(G)p.r(A)p.r(G)p.r(A)p.r(G)p.d(T)p.d(T)}|RNA2{r(C)p.r(U)p.r(C)p.r(U)p.r(C)p.r(C)p.r(G)p.r(A)p.r(G)p.r(C)p.r(U)p.r(C)p.r(G)p.r(G)p.r(G)p.r(G)p.r(A)p.r(U)p.r(G)p.d(A)p.d(T)}$$$RNA1{StrandType:ss}|RNA2{StrandType:as}$” was run?
Answer: Its normalised inhibition (eCFP-eYFP dual reporter) is 50.9%.

Question: For “RNA1{r(C)p.r(C)p.r(A)p.r(C)p.r(A)p.r(A)p.r(C)p.r(C)p.r(A)p.r(G)p.r(U)p.r(C)p.r(G)p.r(G)p.r(A)p.r(G)p.r(C)p.r(U)p.r(C)p.d(T)p.d(T)}|RNA2{r(G)p.r(A)p.r(G)p.r(C)p.r(U)p.r(C)p.r(C)p.r(G)p.r(A)p.r(C)p.r(U)p.r(G)p.r(G)p.r(U)p.r(U)p.r(G)p.r(U)p.r(G)p.r(G)p.d(A)p.d(A)}$$$RNA1{StrandType:ss}|RNA2{StrandType:as}$”, which normalised inhibition (eCFP-eYFP dual reporter) is on record?
Answer: The normalised inhibition (eCFP-eYFP dual reporter) was 80.8%.

Question: For “RNA1{r(C)p.r(C)p.r(A)p.r(C)p.r(C)p.r(G)p.r(G)p.r(A)p.r(G)p.r(C)p.r(U)p.r(G)p.r(G)p.r(A)p.r(G)p.r(A)p.r(A)p.r(C)p.r(A)p.d(T)p.d(T)}|RNA2{r(U)p.r(G)p.r(U)p.r(U)p.r(C)p.r(U)p.r(C)p.r(C)p.r(A)p.r(G)p.r(C)p.r(U)p.r(C)p.r(C)p.r(G)p.r(G)p.r(U)p.r(G)p.r(G)p.d(A)p.d(G)}$$$RNA1{StrandType:ss}|RNA2{StrandType:as}$”, which normalised inhibition (eCFP-eYFP dual reporter) is on record?
Answer: The normalised inhibition (eCFP-eYFP dual reporter) was 86.7%.

Question: How did the normalised inhibition (eCFP-eYFP dual reporter) turn out when “RNA1{r(C)p.r(C)p.r(C)p.r(G)p.r(C)p.r(U)p.r(A)p.r(C)p.r(G)p.r(U)p.r(G)p.r(A)p.r(C)p.r(C)p.r(G)p.r(A)p.r(U)p.r(G)p.r(G)p.d(T)p.d(T)}|RNA2{r(C)p.r(C)p.r(A)p.r(U)p.r(C)p.r(G)p.r(G)p.r(U)p.r(C)p.r(A)p.r(C)p.r(G)p.r(U)p.r(A)p.r(G)p.r(C)p.r(G)p.r(G)p.r(G)p.d(T)p.d(G)}$$$RNA1{StrandType:ss}|RNA2{StrandType:as}$” was run?
Answer: Its normalised inhibition (eCFP-eYFP dual reporter) is 77.6%.

Question: With “RNA1{r(C)p.r(C)p.r(G)p.r(A)p.r(U)p.r(G)p.r(G)p.r(G)p.r(C)p.r(C)p.r(G)p.r(U)p.r(G)p.r(C)p.r(C)p.r(G)p.r(C)p.r(A)p.r(G)p.d(T)p.d(T)}|RNA2{r(C)p.r(U)p.r(G)p.r(C)p.r(G)p.r(G)p.r(C)p.r(A)p.r(C)p.r(G)p.r(G)p.r(C)p.r(C)p.r(C)p.r(A)p.r(U)p.r(C)p.r(G)p.r(G)p.d(T)p.d(C)}$$$RNA1{StrandType:ss}|RNA2{StrandType:as}$” as the substance, how does the normalised inhibition (eCFP-eYFP dual reporter) read?
Answer: Its normalised inhibition (eCFP-eYFP dual reporter) is 54.3%.

Question: How did the normalised inhibition (eCFP-eYFP dual reporter) turn out when “RNA1{r(C)p.r(C)p.r(G)p.r(C)p.r(A)p.r(G)p.r(C)p.r(G)p.r(C)p.r(C)p.r(A)p.r(A)p.r(G)p.r(C)p.r(C)p.r(G)p.r(G)p.r(U)p.r(C)p.d(T)p.d(T)}|RNA2{r(G)p.r(A)p.r(C)p.r(C)p.r(G)p.r(G)p.r(C)p.r(U)p.r(U)p.r(G)p.r(G)p.r(C)p.r(G)p.r(C)p.r(U)p.r(G)p.r(C)p.r(G)p.r(G)p.d(C)p.d(A)}$$$RNA1{StrandType:ss}|RNA2{StrandType:as}$” was run?
Answer: Its normalised inhibition (eCFP-eYFP dual reporter) is 51.3%.

Question: For “RNA1{r(C)p.r(C)p.r(G)p.r(C)p.r(G)p.r(A)p.r(G)p.r(C)p.r(U)p.r(G)p.r(C)p.r(A)p.r(C)p.r(U)p.r(U)p.r(C)p.r(A)p.r(C)p.r(C)p.d(T)p.d(T)}|RNA2{r(G)p.r(G)p.r(U)p.r(G)p.r(A)p.r(A)p.r(G)p.r(U)p.r(G)p.r(C)p.r(A)p.r(G)p.r(C)p.r(U)p.r(C)p.r(G)p.r(C)p.r(G)p.r(G)p.d(C)p.d(A)}$$$RNA1{StrandType:ss}|RNA2{StrandType:as}$”, which normalised inhibition (eCFP-eYFP dual reporter) is on record?
Answer: Its normalised inhibition (eCFP-eYFP dual reporter) is 66.8%.

Question: How did the normalised inhibition (eCFP-eYFP dual reporter) turn out when “RNA1{r(C)p.r(C)p.r(G)p.r(C)p.r(U)p.r(A)p.r(C)p.r(G)p.r(U)p.r(G)p.r(A)p.r(C)p.r(C)p.r(G)p.r(A)p.r(U)p.r(G)p.r(G)p.r(G)p.d(T)p.d(T)}|RNA2{r(C)p.r(C)p.r(C)p.r(A)p.r(U)p.r(C)p.r(G)p.r(G)p.r(U)p.r(C)p.r(A)p.r(C)p.r(G)p.r(U)p.r(A)p.r(G)p.r(C)p.r(G)p.r(G)p.d(G)p.d(T)}$$$RNA1{StrandType:ss}|RNA2{StrandType:as}$” was run?
Answer: Its normalised inhibition (eCFP-eYFP dual reporter) is 64.7%.

Question: Which normalised inhibition (eCFP-eYFP dual reporter) does the source give for “RNA1{r(C)p.r(C)p.r(G)p.r(G)p.r(U)p.r(G)p.r(G)p.r(U)p.r(G)p.r(A)p.r(G)p.r(G)p.r(C)p.r(G)p.r(C)p.r(C)p.r(G)p.r(C)p.r(G)p.d(T)p.d(T)}|RNA2{r(C)p.r(G)p.r(C)p.r(G)p.r(G)p.r(C)p.r(G)p.r(C)p.r(C)p.r(U)p.r(C)p.r(A)p.r(C)p.r(C)p.r(A)p.r(C)p.r(C)p.r(G)p.r(G)p.d(G)p.d(A)}$$$RNA1{StrandType:ss}|RNA2{StrandType:as}$” here?
Answer: Its normalised inhibition (eCFP-eYFP dual reporter) is 35.8%.

Reference: the OligoGym collection
